Patent US20230403873A1, “ORGANIC COMPOUND AND ORGANIC LIGHT-EMITTING DEVICE” (CANON KABUSHIKI KAISHA, priority 2022, published 2023)

What was measured:
Type in all cases: physicochemical
[1] = Evaluation of thermal properties: weight-loss initiation temperature by thermogravimetry/differential thermal analyzer STA7200; details: under atmospheric pressure
Protocol: (§1) The weight-loss initiation temperatures of compounds (1), (5), (10) and compound A, serving as a compound of a comparative example, under atmospheric pressure were measured with a thermogravimetry/differential thermal analyzer STA7200 (available from Hitachi High-Tech Science Corporation). In addition, the sublimation temperature was defined as the temperature at which the rate of weight loss under vacuum (2 Pa) reached 5% and was measured with a thermogravimetry/differential thermal analyzer TA7000 (available from Hitachi High-Tech Science Corporation).

[2] = Evaluation of thermal properties: sublimation temperature under vacuum by thermogravimetry/differential thermal analyzer TA7000; details: temperature at which the rate of weight loss under vacuum (2 Pa) reached 5%
Protocol: as §1

[3] = Evaluation of solubility in toluene; details: organic solvent or mixture, thermodynamic from solid; 50 mg in 1 mL of toluene, stirred at room temperature
Protocol: First, 50 mg of compound (25), 50 mg of compound (29), which were synthesized in the above examples, and 50 mg of compound A as a comparative example were placed in respective sample bottles each containing 1 mL of toluene. The mixtures were stirred at room temperature to determine whether the compounds were dissolved.

SMILES	Weight-loss initiation temperature [1]	Sublimation temperature [2]	solubility [3]
CC(C)(C)c1cc2ccc3cc4c(c5ccc(c1)c2c35)-c1ccc(-c2ncnc(-c3ccc5c(c3)C(C)(C)c3cc6ccc7cc(C(C)(C)C)cc8ccc(c3-5)c6c78)n2)cc1C4(C)C [Compound (5)]	385 °C	315 °C	–
CC(C)(C)c1cc2ccc3cc4c(c5ccc(c1)c2c35)-c1ccc(-c2cccc(-c3ccc5c(c3)C(C)(C)c3cc6ccc7cc(C(C)(C)C)cc8ccc(c3-5)c6c78)n2)cc1C4(C)C [(10)]	260 °C	205 °C	–
CC(C)(C)c1cc2ccc3cc4c(c5ccc(c1)c2c35)-c1ccc(-c2cc(-c3ccc5c(c3)C(C)(C)c3cc6ccc7cc(C(C)(C)C)cc8ccc(c3-5)c6c78)ncn2)cc1C4(C)C [Compound (1)]	450 °C	385 °C	–
CC(C)(C)c1cc2ccc3cc4c(c5ccc(c1)c2c35)-c1ccc(-c2ccc(-c3ccc(-c5ccc6c(c5)C(C)(C)c5cc7ccc8cc(C(C)(C)C)cc9ccc(c5-6)c7c89)cc3)cc2)cc1C4(C)C [Compound A]	550 °C	470 °C	< 50 mg/mL
CC(C)(C)c1cc2ccc3cc4c(c5ccc(c1)c2c35)-c1ccc(-c2ccc3c(c2)C2(c5ccccc5-c5ccccc52)c2cc(-c5ccc6c(c5)C(C)(C)c5cc7ccc8cc(C(C)(C)C)cc9ccc(c5-6)c7c89)ccc2-3)cc1C4(C)C [Compound (25)]	–	–	> 50 mg/mL
CC(C)(C)c1cc2ccc3cc4c(c5ccc(c1)c2c35)-c1ccc(-c2ccc3c(c2)C2(c5ccccc5-3)c3ccccc3-c3ccc(-c5ccc6c(c5)C(C)(C)c5cc7ccc8cc(C(C)(C)C)cc9ccc(c5-6)c7c89)cc32)cc1C4(C)C [Compound (29)]	–	–	> 50 mg/mL
